From ChEMBL document CHEMBL4477189, “Effects of 2,3-Dehydrosilybin and Its Galloyl Ester and Methyl Ether Derivatives on Human Umbilical Vein Endothelial Cells” (J Nat Prod, 2016)
The source made the active and inactive calls. The rule behind the calls is not given here.

Columns and labels:
HUVEC [1] = assay: Antimigratory activity in HUVEC assessed as inhibition of cell migration at 10 uM measured after 16 to 20 hrs by crystal violet staining-based microscopic analysis; type: functional; settings: Homo sapiens
HUVEC [2] = assay: Cytotoxicity in HUVEC assessed as reduction in cell viability measured after 24 hrs by MTT assay; type: cell-based; settings: Homo sapiens
HUVEC [3] = assay: Antiproliferative activity in HUVEC assessed as reduction in cell viability measured after 72 hrs by MTT assay; type: functional, cell-based; settings: Homo sapiens
HUVEC [4] = assay: Antimigratory activity in HUVEC assessed as inhibition of cell migration measured after 16 to 20 hrs by crystal violet staining-based microscopic analysis; type: functional; settings: Homo sapiens
[5] = Antiproliferative activity against bFGF-stimulated BBEC by Coulter particle counter method; type: functional, Bos taurus
RF/6A [6] = assay: Antimigratory activity in rhesus monkey RF/6A cells measured after 24 hrs by wound assay; type: functional, cell-based; settings: Macaca mulatta
RF/6A [7] = assay: Antiproliferative activity in rhesus monkey RF/6A cells measured after 24 to 72 hrs by MTT assay; type: functional, cell-based; settings: Macaca mulatta

SMILES: COc1cc(O)c2c(=O)c(O)c(-c3ccc4c(c3)OC(c3ccc(O)c(OC)c3)C(CO)O4)oc2c1 (stereo not drawn)
- inhibition (HUVEC [1]): Active
- IC50 (HUVEC [2]): 15.2 µM
- IC50 (HUVEC [3]): 6.7 µM
- IC50 (HUVEC [4]): 10.4 µM

SMILES: COc1cc(C2Oc3cc(-c4oc5cc(O)cc(O)c5c(=O)c4OC)ccc3OC2CO)ccc1O (stereo not drawn)
- inhibition (HUVEC [1]): Active
- IC50 (HUVEC [2]): 22.5 µM
- IC50 (HUVEC [3]): 4.9 µM
- IC50 (HUVEC [4]): 11.3 µM

SMILES: COc1cc(C2Oc3cc(-c4oc5cc(OC(=O)c6cc(O)c(O)c(O)c6)cc(O)c5c(=O)c4O)ccc3OC2CO)ccc1O (stereo not drawn)
- inhibition (HUVEC [1]): Active
- IC50 (HUVEC [2]): 3.4 µM
- IC50 (HUVEC [3]): 1.6 µM
- IC50 (HUVEC [4]): 4.7 µM
- inhibition (HUVEC [4]): Dose-dependent effect

SMILES: O=c1cc(-c2ccc(O)c(O)c2)oc2cc(O)cc(O)c12 [LUTEOLIN]
- IC50 [5]: 1.9 µM

SMILES: O=c1cc(-c2ccc(O)c(O)c2)oc2cc(OC3O[C@H](CO)[C@@H](O)[C@H](O)[C@H]3O)cc(O)c12 (stereo partly drawn)
- IC50 [5]: 18 µM

SMILES: COc1cc(C2Oc3cc(-c4oc5cc(O)cc(O)c5c(=O)c4O)ccc3OC2CO)ccc1O (stereo not drawn) [DEHYDROSILYLBIN]
- inhibition (HUVEC [1]): Active
- IC50 (HUVEC [2]): 12 µM
- IC50 (HUVEC [3]): 5.4 µM
- IC50 (HUVEC [4]): 12.2 µM

SMILES: O=c1c(O)c(-c2ccc(O)c(O)c2)oc2cc(O)cc(O)c12 [QUERCETIN]
- IC50 [5]: 5.4 µM
- IC50 (RF/6A [6]): 40 µM
- IC50 (RF/6A [7]): 70 µM

SMILES: COCC1Oc2ccc(-c3oc4cc(O)cc(O)c4c(=O)c3O)cc2OC1c1ccc(O)c(OC)c1 (stereo not drawn)
- inhibition (HUVEC [1]): Active
- IC50 (HUVEC [2]): 28.3 µM
- IC50 (HUVEC [3]): 5.3 µM
- IC50 (HUVEC [4]): 10.5 µM

SMILES: COc1cc(C2Oc3cc(-c4oc5cc(O)cc(O)c5c(=O)c4OC(=O)c4cc(O)c(O)c(O)c4)ccc3OC2CO)ccc1O (stereo not drawn)
- inhibition (HUVEC [1]): Active
- IC50 (HUVEC [2]): 18.9 µM
- IC50 (HUVEC [3]): 11.7 µM
- IC50 (HUVEC [4]): 36.8 µM

SMILES: COc1cc(O)c2c(=O)c(OC)c(-c3ccc4c(c3)OC(c3ccc(O)c(OC)c3)C(CO)O4)oc2c1 (stereo not drawn)
- inhibition (HUVEC [1]): Active
- IC50 (HUVEC [2]): 43.1 µM
- IC50 (HUVEC [3]): 8.3 µM
- IC50 (HUVEC [4]): 49.9 µM

SMILES: COc1cc(C2Oc3cc(-c4oc5cc(O)cc(OC)c5c(=O)c4O)ccc3OC2CO)ccc1O (stereo not drawn)
- inhibition (HUVEC [1]): Active
- IC50 (HUVEC [2]): 62.4 µM
- IC50 (HUVEC [3]): 6.2 µM
- IC50 (HUVEC [4]): 11.1 µM
